Assay results: patent US10934298B2, “Substituted pyrazolo[1,5-a]pyrimidines for the treatment of medical disorders” (BIAL—BioTech Investments, Inc., priority 2016, dated 2021)

Target: T1, glucocerebrosidase (Gcase) (Homo sapiens, UniProt P04062)
T1 construct: micellar solution containing 10 nM GCase and 100 nM saposin C
T1 sequence (P04062 40-536): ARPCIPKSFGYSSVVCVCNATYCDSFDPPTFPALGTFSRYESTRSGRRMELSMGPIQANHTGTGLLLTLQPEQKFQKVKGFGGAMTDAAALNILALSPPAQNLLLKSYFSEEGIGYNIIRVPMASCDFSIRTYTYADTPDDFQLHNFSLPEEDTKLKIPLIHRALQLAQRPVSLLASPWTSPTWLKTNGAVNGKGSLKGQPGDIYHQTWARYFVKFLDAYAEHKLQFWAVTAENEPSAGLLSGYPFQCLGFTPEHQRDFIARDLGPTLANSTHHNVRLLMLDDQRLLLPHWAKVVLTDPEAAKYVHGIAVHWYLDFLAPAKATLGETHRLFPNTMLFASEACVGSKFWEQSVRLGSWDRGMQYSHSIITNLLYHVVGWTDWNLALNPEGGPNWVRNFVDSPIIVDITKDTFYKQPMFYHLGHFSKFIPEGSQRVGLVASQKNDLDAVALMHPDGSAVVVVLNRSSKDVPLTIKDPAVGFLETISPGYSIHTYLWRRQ
Assay: Glucocerebrosidase (Gcase) activation assay with 4-methylumbelliferyl-beta-D-glucopyranoside substrate, saposin C and phosphatidylserine/triton micelles, fluorescence readout
Format: biochemical
Procedure, shortened: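 Test compounds are first screened at 1.0 and 0.1 μM final, then titrated in 8 points (3-fold from 5 μM) against human GCase with saposin C in phosphatidylserine/triton X-100 micelles at pH 4.7. Reactions run 15 min at room temperature, with fluorescence read at 365/440 nm.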

SMILES | Percent Gcase Activation, 0.1 μM Test Compound (test compound at 0.1 μM) | Percent Gcase Activation, 1 μM Test Compound (test compound at 1.0 μM) | Percent Gcase Activation, 0.1 μM Test Compound (0.1 μM test compound) | Percent Gcase Activation, 1 μM Test Compound (1 μM test compound) | Percent Gcase Activation, 0.1 μM Test Compound (0.1 μM test compound, Table 3A) | Percent Gcase Activation, 1 μM Test Compound (1 μM test compound, Table 3A)
COc1ccc(-c2cc(C)n3ncc(C(=O)N[C@H](C)C(F)(F)F)c3n2)cn1 [III-272] | ** (Gcase activation in the range of 10% up to 20%) | +++ (Gcase activation greater than 60%) | – | – | – | –
Cc1cc(N2CC(C(C)C)OC2=O)nc2c(C(=O)NC(C3CC3)C(F)(F)F)cnn12 (centres unmarked) [III-316] | – | – | ** (Gcase activation in the range of 10% up to 20%) | +++ (Gcase activation greater than 60%) | – | –
COc1ccc(F)c(-c2cc(C)n3ncc(C(=O)N[C@@H](C)C(F)(F)F)c3n2)c1 [III-98] | *** (greater than 20% Gcase activation) | +++ (Gcase activation greater than 60%) | – | – | – | –
COCc1cc(-c2cccc(OC)c2)nc2c(C(=O)NC(C)(C)C3CC3)cnn12 [III-79] | – | – | – | – | *** (greater than 20% Gcase activation) | +++ (Gcase activation greater than 60%)
Cc1nsc(C)c1-c1cc(C)n2ncc(C(=O)N[C@@H](C3CC3)C(F)(F)F)c2n1 [III-386] | – | – | * (less than 10% Gcase activation) | + (less than 30% Gcase activation) | – | –
Cc1cc(NC2CC2)nc2c(C(=O)N[C@@H](C)C3CC3)cnn12 [III-166] | ** (Gcase activation in the range of 10% up to 20%) | +++ (Gcase activation greater than 60%) | – | – | – | –
Cc1cc(-c2ccc(F)cc2)nc2c(C(=O)NC(C)C(F)(F)F)cnn12 (centres unmarked) [III-164] | *** (greater than 20% Gcase activation) | +++ (Gcase activation greater than 60%) | – | – | – | –
Cc1cc(-c2cccnc2F)nc2c(C(=O)N[C@@H](C3CC3)C(F)(F)F)cnn12 [III-115] | *** (greater than 20% Gcase activation) | +++ (Gcase activation greater than 60%) | – | – | – | –
COCc1cc(-c2ccc(F)cc2)nc2c(C(=O)NC(C)(C)C3CC3)cnn12 [III-47] | – | – | – | – | ** (Gcase activation in the range of 10% up to 20%) | +++ (Gcase activation greater than 60%)
Cc1cc(-c2ccccc2C#N)nc2c(C(=O)NC(C3CC3)C(F)(F)F)cnn12 (centres unmarked) [III-211] | *** (greater than 20% Gcase activation) | +++ (Gcase activation greater than 60%) | – | – | – | –
Cc1cc(-c2noc(C(C)C)n2)nc2c(C(=O)N[C@@H](C)C3CC3)cnn12 [III-402] | – | – | *** (greater than 20% Gcase activation) | +++ (Gcase activation greater than 60%) | – | –
Cc1cc(N2CCCCC2)n2ncc(C(=O)N[C@@H](C)C3CC3)c2n1 [III-30] | – | – | – | – | * (less than 10% Gcase activation) | + (less than 30% Gcase activation)
COc1cccc(-c2cc(C)n3ncc(C(=O)NC(C)C(F)(F)F)c3n2)c1 (centres unmarked) [III-55] | – | – | – | – | *** (greater than 20% Gcase activation) | +++ (Gcase activation greater than 60%)
Cc1cc(-c2ccc(F)cc2C#N)nc2c(C(=O)N[C@@H](C)C3CC3)cnn12 [III-152] | *** (greater than 20% Gcase activation) | +++ (Gcase activation greater than 60%) | – | – | – | –
COc1cccc(-c2cc(C)n3ncc(C(=O)N[C@@H](C)C4CC4)c3n2)c1 [III-57] | – | – | – | – | *** (greater than 20% Gcase activation) | +++ (Gcase activation greater than 60%)
Cc1cc(N2CCN(C(C)C)C2=O)nc2c(C(=O)NC(C)C(F)(F)F)cnn12 (centres unmarked) [III-227] | * (less than 10% Gcase activation) | + (less than 30% Gcase activation) | – | – | – | –
Cc1cc(-c2cc(F)ccc2C#N)nc2c(C(=O)N[C@@H](C)C(F)(F)F)cnn12 [III-350] | – | – | *** (greater than 20% Gcase activation) | +++ (Gcase activation greater than 60%) | – | –
Cc1cc(-c2cccc(Cl)c2)nc2c(C(=O)NC(C)C(F)(F)F)cnn12 (centres unmarked) [III-64] | – | – | – | – | *** (greater than 20% Gcase activation) | +++ (Gcase activation greater than 60%)
CCc1cc(N2CCN(C(C)C)C2=O)nc2c(C(=O)NC(C)C(F)(F)F)cnn12 (centres unmarked) [III-226] | * (less than 10% Gcase activation) | ++ (Gcase activation in the range of 30% up to 60%) | – | – | – | –

SMILES | Percent Gcase Activation, 0.1 μM Test Compound (test compound at 0.1 μM) | Percent Gcase Activation, 1 μM Test Compound (test compound at 1.0 μM) | Percent Gcase Activation, 0.1 μM Test Compound (0.1 μM test compound) | Percent Gcase Activation, 1 μM Test Compound (1 μM test compound) | Percent Gcase Activation, 0.1 μM Test Compound (0.1 μM test compound, Table 3A) | Percent Gcase Activation, 1 μM Test Compound (1 μM test compound, Table 3A)
Cc1cc(C#N)c(-c2cc(C)n3ncc(C(=O)NC(C4CC4)C(F)(F)F)c3n2)o1 (centres unmarked) [III-245] | * (less than 10% Gcase activation) | + (less than 30% Gcase activation) | – | – | – | –
Cc1cc(-c2ccoc2)nc2c(C(=O)N[C@H](C)C(F)(F)F)cnn12 [III-337] | – | – | *** (greater than 20% Gcase activation) | +++ (Gcase activation greater than 60%) | – | –
Cc1cc(-c2ccc3ocnc3c2)nc2c(C(=O)N[C@@H](C)C(F)(F)F)cnn12 [III-168] | *** (greater than 20% Gcase activation) | +++ (Gcase activation greater than 60%) | – | – | – | –
Cc1cc(-c2cc(C)n3ncc(C(=O)N[C@@H](C)C(F)(F)F)c3n2)co1 [III-339] | – | – | *** (greater than 20% Gcase activation) | +++ (Gcase activation greater than 60%) | – | –
Cc1cc(-c2cccnc2)nc2c(C(=O)NC(C(C)C)C(F)(F)F)cnn12 (centres unmarked) [III-41] | – | – | – | – | ** (Gcase activation in the range of 10% up to 20%) | +++ (Gcase activation greater than 60%)
Cc1cc(-c2ccc3nc[nH]c3c2)nc2c(C(=O)NC(C3CC3)C(F)(F)F)cnn12 (centres unmarked) [III-307] | – | – | *** (greater than 20% Gcase activation) | ++ (Gcase activation in the range of 30% up to 60%) | – | –
Cc1cc(C#N)nc2c(C(=O)N[C@@H](C3CC3)C(F)(F)F)cnn12 [III-395] | – | – | * (less than 10% Gcase activation) | ++ (Gcase activation in the range of 30% up to 60%) | – | –
Cc1cc(C#N)c(-c2cc(C)n3ncc(C(=O)N[C@H](C)C(F)(F)F)c3n2)s1 [III-347] | – | – | *** (greater than 20% Gcase activation) | +++ (Gcase activation greater than 60%) | – | –
COc1cccc(-c2cc(C)n3ncc(C(=O)N[C@@H](C)C(F)(F)F)c3n2)c1 [III-91] | *** (greater than 20% Gcase activation) | +++ (Gcase activation greater than 60%) | – | – | – | –
Cc1cc(-c2cccnc2)nc2c(C(=O)N[C@H](C)c3ccc(Cl)cc3)cnn12 [III-37] | – | – | – | – | ** (Gcase activation in the range of 10% up to 20%) | +++ (Gcase activation greater than 60%)
Cc1cc(-c2cncc(C#N)c2)nc2c(C(=O)NC(C)(C)C3CC3)cnn12 [III-369] | – | – | ** (Gcase activation in the range of 10% up to 20%) | +++ (Gcase activation greater than 60%) | – | –
Cc1occc1-c1cc(C)n2ncc(C(=O)N[C@H](C)C(F)(F)F)c2n1 [III-340] | – | – | *** (greater than 20% Gcase activation) | +++ (Gcase activation greater than 60%) | – | –
Cc1cc(-c2ccncc2)n2ncc(C(=O)N[C@@H](C)C3CC3)c2n1 [III-29] | – | – | – | – | * (less than 10% Gcase activation) | + (less than 30% Gcase activation)
Cc1cc(-c2ccccn2)nc2c(C(=O)NC(C)C(F)(F)F)cnn12 (centres unmarked) [III-50] | – | – | – | – | ** (Gcase activation in the range of 10% up to 20%) | +++ (Gcase activation greater than 60%)
Cc1cc(-c2cccc(Oc3ncccn3)c2)nc2c(C(=O)NC(C3CC3)C(F)(F)F)cnn12 (centres unmarked) [III-103] | * (less than 10% Gcase activation) | +++ (Gcase activation greater than 60%) | – | – | – | –
Cc1cc(C#N)c(-c2cc(C)n3ncc(C(=O)N[C@@H](C)C(F)(F)F)c3n2)s1 [III-348] | – | – | *** (greater than 20% Gcase activation) | +++ (Gcase activation greater than 60%) | – | –
C#CC(C)(C)NC(=O)c1cnn2c(C)cc(-c3cccc(Cl)c3)nc12 [III-81] | – | – | – | – | *** (greater than 20% Gcase activation) | +++ (Gcase activation greater than 60%)
Cc1cc(Cl)n2ncc(C(=O)NC(C)(C)C3CC3)c2n1 [III-14] | – | – | – | – | ** (Gcase activation in the range of 10% up to 20%) | ++ (Gcase activation in the range of 30% up to 60%)
